# Tests used:
# BRD9 [1] = target: T1, BRD9 (Homo sapiens, UniProt Q9H8M2); test: BRD9 degradation in ASKA cells, western blot dose response; type: cell-based; design: degradation endogenous BRD9 protein in two synovial sarcoma cell lines; endogenous in cells; host or cells: ASKA synovial sarcoma cells; settings: for DC50: read-out: Fitted DC50
# T1 sequence (Q9H8M2 1-597): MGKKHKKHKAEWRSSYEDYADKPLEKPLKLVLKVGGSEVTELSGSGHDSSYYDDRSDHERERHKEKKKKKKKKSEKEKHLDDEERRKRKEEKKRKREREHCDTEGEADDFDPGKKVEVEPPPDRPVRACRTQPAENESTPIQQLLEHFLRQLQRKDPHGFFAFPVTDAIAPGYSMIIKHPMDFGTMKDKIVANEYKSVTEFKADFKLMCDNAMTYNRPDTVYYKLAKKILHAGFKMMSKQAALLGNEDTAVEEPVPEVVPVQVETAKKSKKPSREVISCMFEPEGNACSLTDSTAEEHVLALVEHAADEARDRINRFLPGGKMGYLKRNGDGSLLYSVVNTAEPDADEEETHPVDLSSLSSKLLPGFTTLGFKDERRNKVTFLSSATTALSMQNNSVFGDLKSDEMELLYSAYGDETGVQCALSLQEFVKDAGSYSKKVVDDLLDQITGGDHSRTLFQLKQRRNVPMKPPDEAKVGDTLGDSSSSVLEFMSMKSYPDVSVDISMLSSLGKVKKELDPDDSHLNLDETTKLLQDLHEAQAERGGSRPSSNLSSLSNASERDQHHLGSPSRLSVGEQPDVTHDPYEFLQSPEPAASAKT
# Method: Method. […] Cells were then harvested, washed with cold PBS, and frozen in cell pellets at −80° C. Lysates were prepared by resuspending thawed pellets in 1×RIPA Lysis and Extraction buffer (Thermo Fisher, Cat #89900) with 1× Halt™ Protease and Phosphatase Inhibitor Cocktail, EDTA-free (Thermo Fisher, Cat #78441) and 1:1000 dilution Pierce™ Universal Nuclease for Cell Lysis 25ku (Thermo Fisher, Cat #88700). Lysates were incubated on ice for 10 minutes and then centrifuged in 4° C. at maximum speed (15,000 rpm) for 10 minutes. Samples were then analyzed for total protein using BCA protein quantification assay and diluted to 1 μg/μL with lysis buffer and 1× NuPAGE™ LDS Sample Buffer (4×) (Thermo Fisher, Cat #NP0007) and 1×DTT from 30× stock (Cell Signaling Technologies, Cat #14265S). Samples with 20-25 ug of total protein were loaded into 4-12% Bis-Tris Mini-Gel with 1×MES Running buffer and run at 150V for 45 minutes. Gels were transferred using Trans-Blot® Turbo™ Transfer System (semi-dry) at 25V for 10 minutes (High MW setting) on nitrocellulose blots. Blots were blocked in 5% milk in TBST for 1 hour and probed with BRD9 antibody (Bethyl Labs, Cat #A303-781A, 1:750 for SYO1, and Cell Signaling Technologies, Cat #71232S for ASKA) and beta-Actin antibody (Cell Signaling Technologies, Cat #3700, 1:2000) overnight at 4° C. The next day, blots were washed in TBST 3× and probed with 1:5000 IRDye® 680LT Goat anti-Rabbit IgG Secondary Antibody (LiCOR, Cat #926-68021) and 1:10000 IRDye® 800CW Goat anti-Mouse IgG Secondary Antibody (LiCOR, Cat #926-32210) in LiCOR Odyssey® Blocking Buffer (TBS) for 1 hour at room temperature. Blots were washed in TBST 3× and scanned at […] wavelength using LiCOR Odyssey® CLx Imaging System. Western blot signal was quantified using same analyses program included in the same machine. BRD9 signal was quantified by normalizing to beta-actin signal and all samples were normalized to DMSO, set as 100% signal.
# BRD9 [2] = target: T1, BRD9; test: BRD9 degradation in SYO-1 cells, western blot dose response; type: cell-based; design: degradation endogenous BRD9 protein in two synovial sarcoma cell lines; endogenous in cells; host or cells: SYO1 (SYO-1) synovial sarcoma cells; settings: for DC50: read-out: Fitted DC50
# Method: Method. Synoial sarcoma cells were plated in 6-well plate at 500-100 k cells/well and treated with serial concentrations of BRD9 degrader (10 nM top concentration, diluted 1:3) the next day for two time points at 37° C. Cells were then harvested, washed with cold PBS, and frozen in cell pellets at −80° C. Lysates were prepared by resuspending thawed pellets in 1×RIPA Lysis and Extraction buffer (Thermo Fisher, Cat #89900) with 1× Halt™ Protease and Phosphatase Inhibitor Cocktail, EDTA-free (Thermo Fisher, Cat #78441) and 1:1000 dilution Pierce™ Universal Nuclease for Cell Lysis 25ku (Thermo Fisher, Cat #88700). Lysates were incubated on ice for 10 minutes and then centrifuged in 4° C. at maximum speed (15,000 rpm) for 10 minutes. Samples were then analyzed for total protein using BCA protein quantification assay and diluted to 1 μg/μL with lysis buffer and 1× NuPAGE™ LDS Sample Buffer (4×) (Thermo Fisher, Cat #NP0007) and 1×DTT from 30× stock (Cell Signaling Technologies, Cat #14265S). Samples with 20-25 ug of total protein were loaded into 4-12% Bis-Tris Mini-Gel with 1×MES Running buffer and run at 150V for 45 minutes. Gels were transferred using Trans-Blot® Turbo™ Transfer System (semi-dry) at 25V for 10 minutes (High MW setting) on nitrocellulose blots. Blots were blocked in 5% milk in TBST for 1 hour and probed with BRD9 antibody (Bethyl Labs, Cat #A303-781A, 1:750 for SYO1, and Cell Signaling Technologies, Cat #71232S for ASKA) and beta-Actin antibody (Cell Signaling Technologies, Cat #3700, 1:2000) overnight at 4° C. The next day, blots were washed in TBST 3× and probed with 1:5000 IRDye® 680LT Goat anti-Rabbit IgG Secondary Antibody (LiCOR, Cat #926-68021) and 1:10000 IRDye® 800CW Goat anti-Mouse IgG Secondary Antibody (LiCOR, Cat #926-32210) in LiCOR Odyssey® Blocking Buffer (TBS) for 1 hour at room temperature. Blots were washed in TBST 3× and scanned at […] wavelength using LiCOR Odyssey® CLx Imaging System. Western blot signal was quantified using same analyses program included in the same machine. BRD9 signal was quantified by normalizing to beta-actin signal and all samples were normalized to DMSO, set as 100% signal.
# BRD9 [3] = target: T1, BRD9; test: Pharmacodynamic BRD9 level in SYO-1 xenograft tumors, western blot (Example 14); type: in vivo; design: degradation endogenous BRD9 protein in two synovial sarcoma cell lines; endogenous in cells; host or cells: SYO1 (SYO-1) synovial sarcoma cells; settings: for pharmacodynamic activity assessed by BRD9 protein level: BALB/c Nude mice, i.v. single dose, FIG. 23; for BRD9 protein degradation in tumor: single dose, tumors up to 72 hours
# [4] = Interconversion between Enantiomer 1 and Enantiomer 2 in cell medium, chiral LC/MS-MS; type: physicochemical; settings: 0.2 μM, 37° C.
# Method: For the assessment of interconversion between Enantiomer 1 and Enantiomer 2 in cell medium, the following test was performed. […] At designated time point, aliquot (50 μL) was taken and processed by the addition of 150 μL of acetonitrile containing 0.1% formic acid and internal standard for LC/MS-MS analysis. Peak areas of both Enantiomer 1 and Enantiomer 2 were determined for each sample using a chiral specific analytical method.
# [5] = test system: synovial sarcoma cell lines (SYO1, Yamato, HS-SY-II, and ASKA); test: Growth of synovial sarcoma cell lines (Example 2: confluency, crystal violet, colonies); type: cell-based; settings: FIGS. 4, 5, 6
# Method: (§1) Cells were treated with DMSO or the BRD9 degrader, Compound 1, at indicated concentrations, and proliferation was monitored from day 7 to day 14 by measuring confluency over time using an IncuCyte live cell analysis system (FIG. 4). Growth medium and compounds were refreshed every 3-4 days.
# (§2) Cells were seeded into 12-well plates and treated with DMSO, 1 μM BRD9 inhibitor, Compound 2 (also known as BI-7273, see Martin et al, J Med Chem. 59(10):4462-4475 (2016); see structure of compound 2 below), or 1 μM BRD9 degrader, Compound 1.
# (§3) The number of cells was optimized for each cell line. Growth medium and compounds were refreshed every 3-5 days. SYO1, Yamato, A549, 293T and HS-SY-II cells were fixed and stained at day 11. ASKA cells were fixed and stained at day 23. Staining was done by incubation with crystal violet solution (0.5 g Crystal Violet, 27 ml 37% Formaldehyde, 100 mL 10×PBS, 10 mL Methanol, 863 dH20 to 1 L) for 30 min followed by 3× washes with water and drying the plates for at least 24 h at room temperature. Subsequently plates were scanned on an Odyssey CLx Imaging system (FIG. 5).
# (§4) Cells were seeded into 96-well ultra-low cluster plate (Costar, #7007) in 200 μL complete media and treated at day 2 with DMSO, Staurosporin, or BRD9 degrader, Compound 1, at indicated doses (FIG. 2C). Media and compounds were changed every 5 d and cell colonies were imaged at day 14.
# [6] = test system: non-synovial control cancer cell lines (RD, HCT116, and Calu6); test: Growth of non-synovial control cancer cell lines, crystal violet, day 14 (Example 3); type: cell-based; settings: FIG. 8
# Method: (§5) Procedure: Cells were seeded into 6-well or 12-well plates and were treated daily with a BRD9 degrader (Compound 1), a bromo-domain BRD9 binder (Compound 2), E3 ligase binder (lenalidomide), DMSO, or staurosporin (positive control for cell killing), at indicated concentrations. The number of cells was optimized for each cell line. Growth media was refreshed every 5 days. By day 14, medium was removed, cells were washed with PBS, and stained using 500 μL of 0.005% (w/v) crystal violet solution in 25% (v/v) methanol for at least 1 hour at room temperature. Subsequently plates were scanned on an Odyssey CLx Imaging system.
# [7] = test system: non-synovial control cancer cell lines (293T, A549, G401); test: Growth of non-synovial control cancer cell lines (Example 2); type: cell-based; settings: FIGS. 4, 5, 6
# Method: as §1, §2, §3, §4
# [8] = test system: synovial sarcoma cell lines (SYO1, HS-SY-II, and ASKA); test: Growth of synovial sarcoma cell lines, crystal violet, day 14 (Example 3); type: cell-based; settings: SYO1, HS-SY-II, ASKA; day 14; FIG. 7
# Method: as §5
smiles,measurement,setting,value
"COc1cc(-c2cn(C)c(=O)c3cnc(N4CCC4)cc23)cc(OC)c1CN1CCC(CN2CCC3(CC2)CN(c2ccc4c(c2)C(=O)N(C2CCC(=O)NC2=O)C4)C3)CC1 (single isomer, unassigned; enantiomer 2) [Enantiomer 2]",DC50,BRD9 [1]; 0.5 h,340 pM
same,difference in DC50 between Enantiomer 1 and Enantiomer 2,BRD9 [1]; 2 h,about 32 fold
same,DC50,BRD9 [1]; 2 h,12 pM
same,difference in DC50 between Enantiomer 1 and Enantiomer 2,"BRD9 [2]; SYO1, 6 h",ca. 3 fold
same,BRD9 degradation compared with racemic compound D1,"BRD9 [2]; SYO-1, 1 or 6 hours, FIGS. 16 and 17",slightly better than its racemic parent compound D1
same,DC50,"BRD9 [2]; SYO-1, 1 h",92 pM
same,DC50,"BRD9 [2]; SYO-1, 6 h",23 pM
same,potency compared with racemic compound D1,BRD9 [3],equipotent to racemic compound D1
same,pharmacodynamic activity assessed by BRD9 protein level,BRD9 [3],significant activity
same,BRD9 protein degradation in tumor,BRD9 [3],degraded BRD9 up to 72 hours after a single dose
same,% Enantiomer 2,"[4]; Enantiomer 2 Dosing, 0 h",99%
same,Mean peak area ratio of Enantiomer 1 over Enantiomer 2 peak area ratio,"[4]; Enantiomer 2 Dosing, 0 h",0.01
same,% Enantiomer 2,"[4]; Enantiomer 2 Dosing, 0.5 h",95%
same,Mean peak area ratio of Enantiomer 1 over Enantiomer 2 peak area ratio,"[4]; Enantiomer 2 Dosing, 0.5 h",0.06
same,% Enantiomer 2,"[4]; Enantiomer 2 Dosing, 2 h",82%
same,Mean peak area ratio of Enantiomer 1 over Enantiomer 2 peak area ratio,"[4]; Enantiomer 2 Dosing, 2 h",0.22
same,% Enantiomer 2,"[4]; Enantiomer 2 Dosing, 6 h",63%
same,Mean peak area ratio of Enantiomer 1 over Enantiomer 2 peak area ratio,"[4]; Enantiomer 2 Dosing, 6 h",0.60
"COc1cc(-c2cn(C)c(=O)c3cnccc23)cc(OC)c1CN(C)C [Compound 2, BI-7273]",growth of the cells,[5],inhibition of the growth of the cells
same,growth of the cells,[6],did not result in inhibition of the growth
same,growth of the cells,[7],does not result in inhibition of the growth
same,growth of the cells,[8],inhibition of the growth of the cells
"COc1cc(-c2cn(C)c(=O)c3cnc(N4CCC4)cc23)cc(OC)c1CN1CCC(CN2CCC3(CC2)CN(c2ccc4c(c2)C(=O)N(C2CCC(=O)NC2=O)C4)C3)CC1 (single isomer, unassigned; enantiomer 1) [Enantiomer 1]",DC50,BRD9 [1]; 0.5 h,> 10000 pM
same,BRD9 degradation activity,"BRD9 [1]; 30 minutes, up to 10 μM",no discernable activity
same,DC50,BRD9 [1]; 2 h,380 pM
same,DC50,"BRD9 [2]; SYO-1, 1 h",2800 pM
same,DC50,"BRD9 [2]; SYO-1, 6 h",66 pM
same,pharmacodynamic activity assessed by BRD9 protein level,BRD9 [3],inactive
same,BRD9 protein degradation in tumor,BRD9 [3],did not degrade BRD9 protein
same,Mean peak area ratio of Enantiomer 2 over Enantiomer 1 peak area ratio,"[4]; Enantiomer 1 Dosing, 0 h",0.0
same,Mean peak area ratio of Enantiomer 2 over Enantiomer 1 peak area ratio,"[4]; Enantiomer 1 Dosing, 0.5 h",0.0
same,% Enantiomer 2,"[4]; Enantiomer 1 Dosing, 2 h",12%
same,Mean peak area ratio of Enantiomer 2 over Enantiomer 1 peak area ratio,"[4]; Enantiomer 1 Dosing, 2 h",0.13
same,% Enantiomer 2,"[4]; Enantiomer 1 Dosing, 6 h",30%
same,Mean peak area ratio of Enantiomer 2 over Enantiomer 1 peak area ratio,"[4]; Enantiomer 1 Dosing, 6 h",0.43

# — patent US11851445B2, “Compounds and uses thereof” (Foghorn Therapeutics Inc., priority 2020, dated 2023)
